In assay [1] the test system is sterol synthesis by rat liver homogenate. Put plainly: CSI screen: inhibition of incorporation of 14C-acetate into nonsaponifiable lipid by rat liver homogenate (sterol synthesis). In kind it is biochemical. The conditions noted are these: 50% inhibition of sterol synthesis over a one-hour period, liver homogenate of cholestyramine-fed rats. The procedure: The ability of compounds of the present invention to inhibit the biosynthesis of cholesterol was measured by two methods. A first method (designated CSI screen) utilized the procedure described by R. E. Dugan et al., Archiv. Biochem. Biophys., (1972), 152, 21-27. In this method, the level of HMG-CoA enzyme activity in standard laboratory rats is increased by feeding the rats a chow diet containing 5% cholestyramine for four days, after which the rats are sacrificed.
The rat livers are homogenized, and the incorporation of ^14 C-acetate into nonsaponifiable lipid by the rat liver homogenate is measured. The micromolar concentration of compound required for 50% inhibition of sterol synthesis over a one-hour period is measured, and expressed as an IC50 value.

The target of a further assay is T1, HMG-CoA reductase (Rattus norvegicus, UniProt P51639).
T1 sequence (P51639 1-887): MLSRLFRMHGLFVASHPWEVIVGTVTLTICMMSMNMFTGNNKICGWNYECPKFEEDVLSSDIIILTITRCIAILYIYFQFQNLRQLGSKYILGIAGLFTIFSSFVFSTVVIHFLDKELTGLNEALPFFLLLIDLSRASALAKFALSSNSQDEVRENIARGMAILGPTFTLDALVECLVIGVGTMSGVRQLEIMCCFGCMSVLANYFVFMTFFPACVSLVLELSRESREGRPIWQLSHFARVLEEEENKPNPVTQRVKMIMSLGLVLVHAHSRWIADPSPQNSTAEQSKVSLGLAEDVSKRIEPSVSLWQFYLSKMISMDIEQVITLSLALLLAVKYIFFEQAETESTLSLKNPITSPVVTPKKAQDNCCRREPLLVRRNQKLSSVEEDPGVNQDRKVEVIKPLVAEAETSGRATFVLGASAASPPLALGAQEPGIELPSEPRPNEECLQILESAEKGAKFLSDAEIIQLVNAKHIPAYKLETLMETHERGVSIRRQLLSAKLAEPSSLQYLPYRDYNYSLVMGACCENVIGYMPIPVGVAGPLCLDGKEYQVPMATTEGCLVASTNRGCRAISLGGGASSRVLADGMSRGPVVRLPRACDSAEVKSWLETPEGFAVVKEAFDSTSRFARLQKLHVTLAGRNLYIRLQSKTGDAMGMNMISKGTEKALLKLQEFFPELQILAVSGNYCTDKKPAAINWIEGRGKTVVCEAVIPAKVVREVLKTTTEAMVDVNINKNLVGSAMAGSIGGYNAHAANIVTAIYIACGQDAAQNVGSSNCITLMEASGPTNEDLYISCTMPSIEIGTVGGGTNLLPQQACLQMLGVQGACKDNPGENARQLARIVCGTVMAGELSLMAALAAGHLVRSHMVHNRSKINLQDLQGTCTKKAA
Put plainly: COR screen: conversion of 14C-HMG-CoA to 14C-mevalonate by purified HMG-CoA reductase. It is filed as biochemical. The following applies: purified enzyme preparation of HMG-CoA reductase, 14C-HMG-CoA converted to 14C-mevalonate. The procedure: A second method (designated COR screen) employed the procedure detailed by T. Kita, et al., J. Clin. Invest., (1980), 66: 1094-1100. In this method, the amount of ^14 C-HMG-CoA converted to ^14 C-mevalonate in the presence of a purified enzyme preparation of HMG-CoA reductase was measured. The micromolar concentration of compound required for 50% inhibition of cholesterol synthesis was measured and recorded as an IC50 value.

As to `CC(C)c1nn(-c2ccccn2)c(-c2ccc(F)cc2)c1CC[C@H]1C[C@H](O)CC(=O)O1` (relative stereo) [Compound 1, trans-6-[2-[5-(4-fluorophenyl)-3-(1-methylethyl)-1-(2-pyridinyl)-1H-pyrazol-4-yl]ethyl]tetrahydro-4-hydroxy-2H-pyran-2-one], the results for the half-maximal inhibitory concentration (IC50) (in assay [1]; against HMG-CoA reductase) were 39 nM and 110 nM, respectively.
For the compound `CC[C@H](C)C(=O)O[C@H]1CCC=C2C=C[C@H](C)[C@H](CC[C@@H]3C[C@@H](O)CC(=O)O3)[C@H]21` [Compactin, reference compound], the midpoint of inhibition in assay [1], the IC50, lay at 26 nM.

In general, IC50 refers to the concentration that inhibits the measured activity by half.

The values are drawn from US4808621A, “Trans-6-[2-(N-heteroaryl-3,5-disubstituted)pyrazol-4-yl)-ethyl]- or ethenyl]tetrahydro-4-hydroxypyran-2-one inhibitors of cholesterol biosynthesis” (Warner-Lambert Company, priority 1987, dated 1989).
